Results on three compounds are retold here after ChEMBL document CHEMBL3352580, “Teucrium polium phenylethanol and iridoid glycoside characterization and flavonoid inhibition of biofilm-forming Staphylococcus aureus” (2015).

The structures appear in SMILES notation. Active and inactive are the calls of the source. The calls are words filed in the database; no cut-off is given here.

The test system of assay [1] is Staphylococcus aureus. As to the kind of experiment: Inhibition of biofilm formation in Staphylococcus aureus AH133 transformed with GFP assessed as zone of inhibition at 16 mg/ml after 24 hrs by confocal laser scanning microscopy. Type of assay: functional. To be noted: for zone of inhibition at 16000 µg/mL: AH133, 24 h, read-out: IZ.
In assay [2] the test system is Staphylococcus aureus. The assay is described as follows: Inhibition of biofilm formation in Staphylococcus aureus AH133 transformed with GFP assessed as zone of inhibition at 40 to 80 ug/disc after 24 hrs by confocal laser scanning microscopy. Type of assay: functional, organism-based.
The test system of assay [3] is Staphylococcus aureus. As to the kind of experiment: Inhibition of biofilm formation in Staphylococcus aureus AH133 transformed with GFP assessed as reduction in recovery of CFU at 80 ug/disc after 24 hrs by confocal laser scanning microscopy. Type of assay: functional, organism-based.
Assay [4] concerns Staphylococcus aureus. The assay is described as follows: Inhibition of biofilm formation in Staphylococcus aureus AH133 transformed with GFP assessed as zone of inhibition at 10 to 20 ug/disc after 24 hrs by confocal laser scanning microscopy. In kind it is functional, organism-based.

As to `CC1(C)S[C@@H]2[C@H](NC(=O)[C@H](N)c3ccccc3)C(=O)N2[C@H]1C(=O)O`, in the assay with Staphylococcus aureus [1], the inhibition entry is “Active”.

Take `O=c1cc(-c2ccc(O)c(O)c2)oc2cc(O)c(O)c(O)c12` [6-HYDROXYLUTEOLIN]: the zone of inhibition at 16000 µg/mL with Staphylococcus aureus [1] was 8 mm. Further, the inhibition result in the assay with Staphylococcus aureus [2] and in the assay with Staphylococcus aureus [3] was “Active” in each case. Besides, the inhibition result in the assay with Staphylococcus aureus [4] is “inactive”.

Consider `COc1cc2oc(-c3ccc(O)c(O)c3)cc(=O)c2c(O)c1OC` [CIRSILIOL], for which, in the assay on Staphylococcus aureus [1], the zone of inhibition at 16000 µg/mL is 10.3 mm. Further, the inhibition entry in the assay on Staphylococcus aureus [2] and in the assay on Staphylococcus aureus [3] was “Active” throughout. Also, in the assay on Staphylococcus aureus [4], the inhibition result was “inactive”.
